# Data as given in PMC9510126, “Hydrophobicity is a key determinant in the activity of arginine-rich cell penetrating peptides” (Scientific Reports, 2022).
# Ends that are not written are not given here. * marks the point of attachment. RhodamineB = CCN(CC)c1ccc2c(-c3ccccc3C(=O)*)c3ccc(=[N+](CC)CC)cc-3oc2c1
# Columns and labels:
# [1] = RP-18 TLC hydrophobicity (1-Rf) of Ac-X-NH2 analogs; assay type: physicochemical; settings: RP18 TLC, 40% acetonitrile / 60% PBS (10 mM phosphate buffer), pH 4 vs pH 8
# Protocol: (§1) In order to assess the hydrophobicity contributed by each X group, the peptides were first analyzed by reverse phase HPLC using a C18 column, using gradients of buffer A (water/TFA 99.9:0.1) and buffer B (acetonitrile/water/TFA 89.9:10:0.1 v:v:v) (gradient of 0–40% B over 20 min). […] All d(X)TAT peptides eluted over a range of 10–35% acetonitrile. […] One caveat of this approach is that the buffer system used for peptide analysis is pH 2 (due to the presence of TFA, required to protonate residue side chains). However, pH 2 is not representative of the pH that CPPs may be exposed to when in contact with cells, either pH 7.2 outside the plasma membrane, or pH between 6.5 and 4.5 while inside acidic endosomes. In order to establish the relative hydrophobicities of d(X)TAT peptides at these pHs, we sought to use other techniques, including thin layer chromatography using C18, aluminum oxide or silica stationary phases. Unfortunately, the arginine-rich peptides could not be separated on these systems. To solve this problem, each individual X group was synthesized, using acetylated and amidated N and C-terminal positions to mimic the peptide backbone found in the d(X)TAT constructs (Fig. 1A, Figure S11). Each Ac-X-NH2 group was analyzed by HPLC and by RP18 TLC, using 40% acetonitrile and 60% PBS as mobile phase. The HPLC elutions of Ac-X-NH2 correlated with the HPLC elutions of their respective d(X)TAT counterparts (Fig. 1C). Similarly, the relative hydrophobicities of Ac-X-NH2 determined by TLC (measured as 1-Rf) at pH 4 or 8 were in good agreement with the results obtained by HPLC (Fig. 1D). […] In the case of DEAC, the protonation state of the fluorophore has, to our knowledge, not been characterized.
# Hydrophobic substituents (10 µL) were developed on aluminum-backed F254 RP-18 TLC plates (EMD Millipore). Plates were cut into 6 cm × 6 cm squares and developed in 40% acetonitrile/60% 10 mM phosphate buffer first along one axis at pH 2.0, then along the second axis at pH 7.4. Peptide substituents that could not be easily identified under long-wave UV light were stained with iodine for 10–20 min. Retention factors (Rf) were calculated based on the distance traveled by each compound between the starting spotted location and the final solvent front location.
# [2] = design: method as in PMID 24227203; settings: cited from earlier work
# [3] = test system: live cells; settings: cited from earlier work
# Protocol: Several strategies have been pursued to improve the delivery properties of CPPs like TAT. They include addition of endosomolytic peptide sequences, addition of hydrophobic residues and cyclization. We and others have shown that reagents which combine multiple copies of the TAT peptide, or TAT-like analogs, are also more efficient at entering cells than their monomeric TAT counterpart. […] In particular, protein payloads co-incubated with dfTAT reach the cytosol of cells by escaping late endosomes specifical ...
# [4] = C18 reverse phase HPLC hydrophobicity of (X)TAT and d(X)TAT peptides; assay type: physicochemical; settings: chromatographic, C18, 0–40% B over 20 min
# Protocol: as §1
# All rpHPLC retention times were analyzed using an Agilent HP 1200 series instrument on an analytical Phenomenex Luna Omega Polar C18 column (5 μm, 4.6 mm × 250 mm). The flow rate was 2 mL/min, and detection was at 214 nm. A binary solvent system was used comprising 99.9% H2O/0.1% TFA (solvent A) and 90% Acetonitrile/9.9% H2O/0.1% TFA (solvent B). […]
# [5] = test system: MDA-MB-231 cells; test: Delivery of TMR-k5 probe into live cells (nuclear staining); assay type: cell-based, human; settings: MDA-MB-231, TMR-k5 20 μM, 1 h, biological triplicates
# Text: To test the relative delivery efficiency of the d(X)TAT peptides, the cell lines MDA-MB-231 (epithelial-like, human breast cancer, spindle-shaped) and Neuro-2a (mouse neuroblastoma with neuronal and amoeboid stem cell morphology) were chosen. These cell lines are routinely used in cancer research, neuroscience, and toxicology. In the context of this study, we rationalized that the distinct differences in origin and characteristics between MDA-MB-231 and Neuro-2a properties may be useful to assess the generality of the results obtained. MDA-MB-231 or Neuro-2a cells were incubated with d(X)TAT peptides at various concentrations and TMR-k5 (20 μM) for 1 h. Cells were then washed, incubated with the DNA stain Hoechst and the live/dead marker SYTOX green (or SYTOX blue), and imaged by fluorescence microscopy. The localization of TMR-k5 in individual nuclei was then assessed by measuring the overlap between TMR and Hoechst signals (Fig. 2, Figure S13). […] This is because, in our experience, dfTAT and dfTAT analogs display a threshold behavior where, below a certain endosomal concentration, endosomal leakage is not achieved. In contrast above this threshold most late endosomes are permeabilized. […] Our rationale was therefore to titrate cells with different concentrations of d(X)TAT agents, monitor how many cells display cytosolic/nuclear delivery of TMR-k5, and compare the different d(X)TAT peptides.
# MDA-MB-231 and Neuro2a cells obtained from ATCC (breast cancer-derived epithelial) were cultured in humidified atmosphere at 5% CO2 and 37 °C. Cells were seeded in plastic 48-well plates (Fisher) for quantitative analysis or 8-well Labtek II plates (Fisher) for qualitative imaging at 100× magnification. The cells were grown to 80–90% confluency in a 37 °C humidified atmosphere containing 5% CO2. Cells were washed three times with Leibovitz’s L15 media (L15) (Fisher). Cells were then incubated with peptide and 20 µM of the TMR-k5 pentalysine probe at 37 °C for 1 h. This was followed by washing the cells three times with L15 supplemented with heparin (Sigma-Aldrich) (1 mg/mL) and an extra L15 wash. […] Additionally, the cell permeable dye Hoechst 33342 (Thermo Fisher Scientific o) was used for nuclear staining. Cells were imaged using an EVOS FL Auto 2 inverted microscope (Thermo Fisher Scientific). The microscope is equipped with a heating chamber maintained at 37 °C. Images were acquired using bright field imaging and five fluorescence filter sets: CFP (Ex = 436 ± 10 nm, Em = 480 ± 20 nm), RFP (Ex = 560 ± 20 nm, Em = 630 ± 35 nm), FITC (Ex = 488 ± 10 nm Em = 520 ± 20 nm), DAPI (Ex = 350 ± 50 nm, Em = 460 ± 25 nm), […]. For image viewing and processing individual images, the Celleste 4.0 software (Thermo Fisher Scientific) was used. Nuclear regions in 20× images where identified using Hoechst staining (the quantification process is described in Figure S13). The intensity of these objects in the TMR channel was then determined using the Celleste software. Cells stained by the SYTOX or DRAQ dyes were considered dead and not counted as positive for delivery. Cells displaying a nuclear TMR-k5 fluorescence above the fluorescence threshold determined for TMR-k5 alone were considered positive for delivery (if excluding SYTOX or DRAQ7 stain, and if visually showing stained nucleoli for confirmation of intracellular localization). The percentage of cells positive for TMR-k5 nuclear staining was then calculated, using Hoechst-stained cells to count the total number of cells present. […] Instead, this assay quantifies the number of cells in which the nuclear fluorescence of TMR-k5 is above a detection threshold. This threshold is dependent on the microscope, imaging conditions, and the concentration of TMR-k5 used during incubation (Figure S13). The reproducibility of all the experiments was assessed by performing experiments with independent batches of cell cultures on three different days (i.e., biological triplicates). […]
compound,measurement,setting,value
CC(=O)N[C@@H](Cc1c[nH]c2ccccc12)C(N)=O [Ac-W-NH2],pH dependence of TLC retention (1-Rf),[1],independent of pH
CC(=O)N[C@@H](Cc1ccc(O)cc1)C(N)=O [Ac-Y-NH2],pH dependence of TLC retention (1-Rf),[1],independent of pH
O=C1OC2(c3ccc(O)cc3Oc3cc(O)ccc32)c2ccccc21 [fluorescein],pKa (dianionic/monoanionic forms),[2],6.4
same,pKa (monoanionic/neutral forms),[2],4.3
same,pKa (neutral/cationic forms),[2],2.1
"(CK(TMR)RKKRRQRRR)2 (disulfide) [dfTAT, dimer of TAT linked by a cystine disulfide bridge, labeled with two tetramethylrhodamine fluorophores]",endosomal escape,[3],high levels of endosomal escape
same,time for cell penetration and payload delivery,[3],less than an hour
same,protein payload remaining trapped inside endosomes relative to what entered the cytosol,[3]; protein payloads co-incubated with dfTAT,less than 10%
(K(RhB))TAT: monomeric peptide CXRKKRRQRRRG with X = K(RhB) (CK(RhodamineB)RKKRRQRRRG-NH2),effect of dimerization on hydrophobicity (dimer vs monomer),"[4]; pH 2, (X)TAT vs d(X)TAT",most impacted by dimerization
d(K(RhB))TAT: disulfide dimer of CXRKKRRQRRRG with X = lysine conjugated to rhodamine B (CK(RhodamineB)RKKRRQRRRG-NH2; also: disulfide dimer),d(X)TAT concentration at which delivery is achieved in a high percentage of cells,[5],< 3 µM
same,relative hydrophobicity of X group by C18 HPLC,"[4]; 0.1% TFA (pH 2), ranking within the d(X)TAT series",most hydrophobic
